# Values quoted from earlier work, collected in patent US10945989B2, “Perinatal treatment with a flavonoid agonist of the TrkB receptor for BDNF rescues neurogenesis and behavior in the Ts65Dn mouse model of DS” (ALMA MATER STUDIORUM—Universita' di Bologna, priority 2017, dated 2021).
# System: Ts65Dn mouse model of DS
# Conditions: perinatal treatment, Bianchi et al., 2010b; Guidi et al., 2014; cited from earlier work
smiles,measurement,value
CNCCC(Oc1ccc(C(F)(F)F)cc1)c1ccccc1 (stereo not shown) [fluoxetine],brain development and cognitive performance,fully restores brain development and cognitive performance
